Test results published in patent US20070155803A1, “Protease inhibitors” (ProZymex A/S, priority 2003, published 2007).
Square brackets hold non-standard residues; d marks the D form. Peptide text beside a SMILES is read from it. Phe(3-F) = N[C@@H](Cc1cccc(F)c1)C(=O)O; hPhe = N[C@@H](CCc1ccccc1)C(=O)O; Abu = CC[C@H](N)C(=O)O; azaGly = NNC(=O)O

Legend:
[1] = target: T1, cellular rat DPP-I (RBL-2H3 cells) (Rattus norvegicus, UniProt P80067); assay: Cellular DPP-I assay; assay type: cell-based; conditions: concentration and time not given
T1 construct: The RBL-2H3 cells (basophilic leukaemia cell line), were obtained from the American Type Culture Collection; endogenous in cells; host or cells: RBL-2H3 cells (ATCC)
T1 sequence (P80067 25-462): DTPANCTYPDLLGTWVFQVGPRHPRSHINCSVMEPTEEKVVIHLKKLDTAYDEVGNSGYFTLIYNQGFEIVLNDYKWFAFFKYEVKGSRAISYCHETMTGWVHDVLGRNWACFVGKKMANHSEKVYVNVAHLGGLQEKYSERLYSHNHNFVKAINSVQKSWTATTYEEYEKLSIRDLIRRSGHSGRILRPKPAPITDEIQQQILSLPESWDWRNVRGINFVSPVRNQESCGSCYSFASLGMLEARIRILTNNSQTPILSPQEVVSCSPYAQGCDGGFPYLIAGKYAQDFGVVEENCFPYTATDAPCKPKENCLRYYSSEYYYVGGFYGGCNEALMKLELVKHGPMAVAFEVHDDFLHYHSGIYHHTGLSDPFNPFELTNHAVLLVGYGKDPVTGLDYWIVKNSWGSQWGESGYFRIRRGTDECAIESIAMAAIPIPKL
Experimental: The following assay was used to the determine the inhibitory effect of compounds of the invention on cellular rat DPP-I.
The RBL-2H3 cells (basophilic leukaemia cell line), were obtained from the American Type Culture Collection. Cells were cultured at 37° C. in humidified air atmosphere with 5% CO2. Cells were grown in complete media (CM) consisting of RPMI (GIBCO) supplemented with 10% heat-inactivated foetal bovine serum (FBS; GIBCO), 100 U/mL penicillin and 100 ug/mL streptomycin (GIBCO).
All cell-based experiments employing inhibitors of DPP-I were performed by addition of the compound (kept below −20° C. as a 10 mM stock solution in DMSO (Sigma)) for indicated time and concentrations to sub-confluent cell cultures growing on culture dishes. All experiments were set up in triplicates. Following the treatment, cells were washed twice in ice-cold PBS (Sigma) and scraped from the culture dish. After another wash in PBS cells were lysed in ice-cold H2O containing 0.3% Triton×100. An additional volume of buffer containing 40 mM MOPS, 2M NaCl, 2 mM EDTA and 20% of glycerol was added. The cell lysate was clarified by centrifugation at 3000 rpm for 10 min. The resulting supernatant was transferred to eppendorf tubes. The Coomassie Plus Protein Assay (Pierece) was used to determine protein levels of the samples.
In Vitro Measurement of DPP-I Activity: […]

[2] = target: T2, Aspergillus DPP-IV (UniProt Q2UH35); assay: Aspergillus DPP-IV assay; assay type: biochemical
T2 construct: Aspergillus DPP-IV (Enzyme System Products, SPE01)
T2 sequence (Q2UH35 1-771): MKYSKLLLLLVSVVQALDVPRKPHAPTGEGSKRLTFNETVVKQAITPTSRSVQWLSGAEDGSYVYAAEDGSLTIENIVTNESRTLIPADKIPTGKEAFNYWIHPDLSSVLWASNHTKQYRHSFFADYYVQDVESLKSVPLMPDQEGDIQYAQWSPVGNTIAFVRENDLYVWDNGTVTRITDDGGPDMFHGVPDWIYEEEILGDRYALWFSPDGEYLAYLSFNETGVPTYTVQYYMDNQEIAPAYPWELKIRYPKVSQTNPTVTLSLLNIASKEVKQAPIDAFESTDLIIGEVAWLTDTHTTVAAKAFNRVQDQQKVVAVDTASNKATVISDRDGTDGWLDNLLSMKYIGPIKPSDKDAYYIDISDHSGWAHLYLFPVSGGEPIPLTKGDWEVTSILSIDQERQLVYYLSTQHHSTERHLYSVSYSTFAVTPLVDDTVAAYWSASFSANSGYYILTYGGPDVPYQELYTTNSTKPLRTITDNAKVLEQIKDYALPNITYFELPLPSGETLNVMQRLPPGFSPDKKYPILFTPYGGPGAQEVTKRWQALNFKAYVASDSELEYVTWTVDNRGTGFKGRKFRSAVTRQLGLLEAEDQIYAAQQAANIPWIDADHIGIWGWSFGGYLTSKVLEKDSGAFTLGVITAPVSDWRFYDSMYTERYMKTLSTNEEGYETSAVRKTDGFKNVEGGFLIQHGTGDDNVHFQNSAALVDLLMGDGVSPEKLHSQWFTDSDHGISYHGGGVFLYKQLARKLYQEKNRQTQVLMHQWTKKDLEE
Experimental: Using this assay, the selectivity of a compound of the invention for hDPP-I over Aspergillus DPP-IV was determined, using a fluorogenic substrate.
Aspergillus DPP-IV (Enzyme System Products, SPE01; 5 mU dissolved in 25 μL assay buffer, giving a stock with a concentration of a 0.2 mU/μL). Prior to running experiment, 5 μL of enzyme stock solution was diluted to 0.004 mU/μL with 245 μL buffer.
Gly-Pro-AFC*TFA (Enzyme System Products AF039; 10 mg) was dissolved in 1 mL DMSO, giving a 20 mM solution. Diluted further in buffer to. 1 mM.
The assay was performed in 96-well plates. 60 μL assay buffer was added to the well followed-by 10 μL 1% DMSO in assay buffer (control) or a compound of the invention (100 μM, corresponding to 10 μM in the assay). Incubated at 37° C., then 10 μL enzyme (corresponding to 0.04 mU in assay) was added, followed by 10 μL substrate (100 μM in the assay). The excitation wavelength was 400 nm, and the emission was measured at 505 nm for 10-20 minutes at 30° C. Each measurement was made in duplicate. In the software (SOFTmax Pro) used for data collection from the fluorometer (Molecular Devices: Gemini XS), it was ensured that the measured slopes were linear (R^2>0.99). Data were exported to GraphPad Prism and nonlinear regression was performed using the option Sigmoidal dose-response (variable slope).

In the case of CC[C@H](N)C(=O)NNC(=O)N[C@@H](CCc1ccccc1)C(=O)N[C@@H](Cc1cccc(F)c1)C(N)=O [Example 11, 1-(2S-2-Aminobutanoyl)-4-[2S-N-[2S-3-(m-fluorophenyl)propan-2-yl-amide]-4-phenylbutan-2-yl-amide]semicarbazide] (H-[Abu][azaGly][hPhe][Phe(3-F)]-NH2), the “Cellular (% inhibition) DPP-I (RBL-2H3 cells)” value [1] is reported as 54%, the “Inhibition of DPP-IV (in words)” value [2] is reported as “does not inhibit” and the IC50 ([2]; Aspergillus DPP-IV, 10 μM cutoff, read-out: Secondary enzymatic screening (10 μM cutoff or IC50) DPP-IV) is reported as over 10 µM.
